Measured values from the NIST ThermoML archive (doi:10.1016/j.tca.2011.08.002).

Experiments:
[1] = refractive index (Na D-line) (dimensionless); xn = mol fraction of the nth substance listed; details: 101 kPa, Liquid, Standard Abbe refractometry
[2] = xn = mol fraction of the nth substance listed; details: 101 kPa, Liquid, Vibrating tube method

C1CCC(NC2CCCCC2)CC1 [N-cyclohexylcyclohexanamine] + CCCCCO
Details | mass density, [2] [kg/m3] | refractive index, [1]
288.15 K, x2 = 0 | 915.498 | 1.48636
288.15 K, x2 = 0.0525 | 913.936 | 1.48486
288.15 K, x2 = 0.1 | 912.365 | 1.48356
288.15 K, x2 = 0.2006 | 908.415 | 1.47999
288.15 K, x2 = 0.2999 | 903.722 | 1.47587
288.15 K, x2 = 0.3985 | 898.063 | 1.47109
288.15 K, x2 = 0.5001 | 890.925 | 1.46523
288.15 K, x2 = 0.5999 | 882.166 | 1.45834
288.15 K, x2 = 0.6992 | 871.226 | 1.45002
288.15 K, x2 = 0.7993 | 857.281 | 1.43976
288.15 K, x2 = 0.8997 | 839.76 | 1.42718
288.15 K, x2 = 0.9495 | 829.611 | 1.41998
293.15 K, x2 = 0 | 911.705 | 1.48416
293.15 K, x2 = 0.0525 | 910.13 | 1.48266
293.15 K, x2 = 0.1 | 908.547 | 1.48135
293.15 K, x2 = 0.2006 | 904.561 | 1.47776
293.15 K, x2 = 0.2999 | 899.824 | 1.47364
293.15 K, x2 = 0.3985 | 894.123 | 1.46884
293.15 K, x2 = 0.5001 | 886.952 | 1.46298
293.15 K, x2 = 0.5999 | 878.178 | 1.4561
293.15 K, x2 = 0.6992 | 867.264 | 1.4478
293.15 K, x2 = 0.7993 | 853.399 | 1.4376
293.15 K, x2 = 0.8997 | 835.998 | 1.4251
293.15 K, x2 = 0.9495 | 825.915 | 1.41796
298.15 K, x2 = 0 | 907.923 | 1.48198
298.15 K, x2 = 0.0525 | 906.333 | 1.48047
298.15 K, x2 = 0.1 | 904.733 | 1.47916
298.15 K, x2 = 0.2006 | 900.708 | 1.47554
298.15 K, x2 = 0.2999 | 895.929 | 1.47141
298.15 K, x2 = 0.3985 | 890.185 | 1.4666
298.15 K, x2 = 0.5001 | 882.98 | 1.46073
298.15 K, x2 = 0.5999 | 874.191 | 1.45386
298.15 K, x2 = 0.6992 | 863.3 | 1.44555
298.15 K, x2 = 0.7993 | 849.507 | 1.43542
298.15 K, x2 = 0.8997 | 832.22 | 1.42299
298.15 K, x2 = 0.9495 | 822.199 | 1.41591
303.15 K, x2 = 0 | 904.144 | 1.47978
303.15 K, x2 = 0.0525 | 902.538 | 1.47828
303.15 K, x2 = 0.1 | 900.921 | 1.47694
303.15 K, x2 = 0.2006 | 896.855 | 1.47333
303.15 K, x2 = 0.2999 | 892.033 | 1.46918
303.15 K, x2 = 0.3985 | 886.249 | 1.46437
303.15 K, x2 = 0.5001 | 879.007 | 1.4585
303.15 K, x2 = 0.5999 | 870.203 | 1.45162
303.15 K, x2 = 0.6992 | 859.33 | 1.44334
303.15 K, x2 = 0.7993 | 845.602 | 1.43327
303.15 K, x2 = 0.8997 | 828.423 | 1.4209
303.15 K, x2 = 0.9495 | 818.461 | 1.41383
308.15 K, x2 = 0 | 900.372 | 1.47761
308.15 K, x2 = 0.0525 | 898.746 | 1.47608
308.15 K, x2 = 0.1 | 897.111 | 1.47475
308.15 K, x2 = 0.2006 | 893.001 | 1.47113
308.15 K, x2 = 0.2999 | 888.135 | 1.46696
308.15 K, x2 = 0.3985 | 882.309 | 1.46214
308.15 K, x2 = 0.5001 | 875.031 | 1.45627
308.15 K, x2 = 0.5999 | 866.208 | 1.44937
308.15 K, x2 = 0.6992 | 855.348 | 1.44113
308.15 K, x2 = 0.7993 | 841.678 | 1.43108
308.15 K, x2 = 0.8997 | 824.599 | 1.41881
308.15 K, x2 = 0.9495 | 814.694 | 1.41175
313.15 K, x2 = 0 | 896.608 | 1.47562
313.15 K, x2 = 0.0525 | 894.957 | 1.47406
313.15 K, x2 = 0.1 | 893.301 | 1.47258
313.15 K, x2 = 0.2006 | 889.146 | 1.4689
313.15 K, x2 = 0.2999 | 884.235 | 1.46472
313.15 K, x2 = 0.3985 | 878.364 | 1.45985
313.15 K, x2 = 0.5001 | 871.049 | 1.45396
313.15 K, x2 = 0.5999 | 862.207 | 1.44702
313.15 K, x2 = 0.6992 | 851.354 | 1.43878
313.15 K, x2 = 0.7993 | 837.734 | 1.42876
313.15 K, x2 = 0.8997 | 820.749 | 1.41655
313.15 K, x2 = 0.9495 | 810.896 | 1.40963
318.15 K, x2 = 0 | 892.847 | 1.47347
318.15 K, x2 = 0.0525 | 891.168 | 1.4719
318.15 K, x2 = 0.1 | 889.492 | 1.47041
318.15 K, x2 = 0.2006 | 885.287 | 1.46671
318.15 K, x2 = 0.2999 | 880.327 | 1.46251
318.15 K, x2 = 0.3985 | 874.411 | 1.45762
318.15 K, x2 = 0.5001 | 867.056 | 1.45172
318.15 K, x2 = 0.5999 | 858.189 | 1.4448
318.15 K, x2 = 0.6992 | 847.34 | 1.43659
318.15 K, x2 = 0.7993 | 833.766 | 1.42658
318.15 K, x2 = 0.8997 | 816.864 | 1.41445
318.15 K, x2 = 0.9495 | 807.06 | 1.40753
323.15 K, x2 = 0 | 889.089 | 1.47134
323.15 K, x2 = 0.0525 | 887.381 | 1.46975
323.15 K, x2 = 0.1 | 885.679 | 1.46826
323.15 K, x2 = 0.2006 | 881.423 | 1.46457
323.15 K, x2 = 0.2999 | 876.412 | 1.46034
323.15 K, x2 = 0.3985 | 870.446 | 1.45547
323.15 K, x2 = 0.5001 | 863.048 | 1.44954
323.15 K, x2 = 0.5999 | 854.154 | 1.44263
323.15 K, x2 = 0.6992 | 843.305 | 1.43439
323.15 K, x2 = 0.7993 | 829.767 | 1.42439
323.15 K, x2 = 0.8997 | 812.943 | 1.4123
323.15 K, x2 = 0.9495 | 803.186 | 1.40539
